Test results reported in PubChem BioAssay (NCI).
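GI50: concentration for 50% inhibition of growth. TGI is the concentration that stops growth completely.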

Legend:
Test in all cases: NCI anticancer screen, dose series, 384-well format
[1] = test system: 786-0 renal
[2] = test system: A498 renal
[3] = test system: A549 NSCLC
[4] = test system: ACHN renal
[5] = test system: BT-549 breast
[6] = test system: CAKI-1 renal
[7] = test system: CCRF-CEM leukemia
[8] = test system: COLO 205 colon
[9] = test system: DU-145 prostate
[10] = test system: EKVX NSCLC
[11] = test system: HCC-2998 colon
[12] = test system: HCT-116 colon
[13] = test system: HCT-15 colon
[14] = test system: HL-60(TB) leukemia
[15] = test system: HOP-62 NSCLC
[16] = test system: HOP-92 NSCLC
[17] = test system: HS 578T breast
[18] = test system: IGROV1 ovarian
[19] = test system: K-562 leukemia
[20] = test system: KM12 colon
[21] = test system: LOX IMVI melanoma
[22] = test system: M14 melanoma
[23] = test system: MALME-3M melanoma
[24] = test system: MCF7 breast
[25] = test system: MDA-MB-231 breast
[26] = test system: MDA-MB-435 melanoma
[27] = test system: MDA-MB-468 breast
[28] = test system: MOLT-4 leukemia
[29] = test system: NCI-H226 lung
[30] = test system: NCI-H23 lung
[31] = test system: NCI-H322M lung
[32] = test system: NCI-H460 NSCLC
[33] = test system: NCI-H522 lung
[34] = test system: NCI/ADR-RES ovarian
[35] = test system: OVCAR-3 ovarian
[36] = test system: OVCAR-4 ovarian
[37] = test system: OVCAR-5 ovarian
[38] = test system: PC-3 prostate
[39] = test system: RPMI-8226 leukemia
[40] = test system: RXF 393 renal
[41] = test system: SF-268 CNS
[42] = test system: SF-295 CNS
[43] = test system: SF-539 CNS
[44] = test system: SK-MEL-2 melanoma
[45] = test system: SK-MEL-28 melanoma
[46] = test system: SK-MEL-5 melanoma
[47] = test system: SK-OV-3 ovarian
[48] = test system: SN12C renal
[49] = test system: SNB-19 CNS
[50] = test system: SNB-75 CNS
[51] = test system: SR leukemia
[52] = test system: SW-620 colon
[53] = test system: T-47D breast
[54] = test system: TK-10 renal
[55] = test system: U251 glioblastoma
[56] = test system: UACC-257 melanoma
[57] = test system: UACC-62 melanoma
[58] = test system: UO-31 renal

## COc1ccc(C(=O)CC2(O)C(=O)Nc3c(Cl)ccc(Cl)c32)cc1 (stereo unspecified)
[1]
  GI50: 3.61 µM
  TGI: 21.7 µM
[2]
  GI50: 3.72 µM
  TGI: 46.7 µM
[3]
  GI50: 2.1 µM
  TGI: > 100 µM
[4]
  GI50: 7.9 µM
  TGI: > 100 µM
[5]
  GI50: 0.509 µM
  TGI: 10.9 µM
[6]
  GI50: 0.679 µM
  TGI: > 100 µM
[7]
  GI50: 0.656 µM
  TGI: 1.9 µM
[8]
  GI50: 0.646 µM
  TGI: > 100 µM
[9]
  GI50: 2.79 µM
  TGI: 12.1 µM
[10]
  GI50: 3.81 µM
  TGI: 52 µM
[11]
  GI50: 1.8 µM
  TGI: 36.2 µM
[12]
  GI50: 0.568 µM
  TGI: 32.1 µM
[13]
  GI50: 0.369 µM
  TGI: 14.4 µM
[14]
  GI50: 0.237 µM
  TGI: 0.474 µM
[15]
  GI50: 1.26 µM
  TGI: 47.8 µM
[16]
  GI50: 9.02 µM
  TGI: 54.5 µM
[17]
  GI50: 1.09 µM
  TGI: 2.76 µM
[18]
  GI50: 2.78 µM
  TGI: > 100 µM
[19]
  GI50: 0.354 µM
  TGI: 1.65 µM
[20]
  GI50: 0.467 µM
  TGI: 25.6 µM
[21]
  GI50: 4.44 µM
  TGI: 21 µM
[22]
  GI50: 0.529 µM
  TGI: 2.57 µM
[23]
  GI50: 13.9 µM
  TGI: 45.4 µM
[24]
  GI50: 1.07 µM
  TGI: 21 µM
[25]
  GI50: 13.2 µM
  TGI: > 100 µM
[26]
  GI50: 0.207 µM
  TGI: 0.431 µM
[27]
  GI50: 0.215 µM
  TGI: 0.571 µM
[28]
  GI50: 0.216 µM
  TGI: 0.426 µM
[29]
  GI50: 6.25 µM
  TGI: 50 µM
[30]
  GI50: 1.97 µM
  TGI: 12.1 µM
[31]
  GI50: 5.82 µM
  TGI: > 100 µM
[32]
  GI50: 0.477 µM
  TGI: 2.48 µM
[33]
  GI50: 0.264 µM
  TGI: 0.587 µM
[34]
  GI50: 0.346 µM
  TGI: 1.36 µM
[35]
  GI50: 0.382 µM
  TGI: 1.25 µM
[36]
  GI50: 8.8 µM
  TGI: 85.6 µM
[37]
  GI50: 9.83 µM
  TGI: > 100 µM
[38]
  GI50: 2.27 µM
  TGI: > 100 µM
[39]
  GI50: 1.17 µM
  TGI: 2.56 µM
[40]
  GI50: 0.96 µM
  TGI: 5.08 µM
[41]
  GI50: 10.6 µM
  TGI: 31.3 µM
[42]
  GI50: 1.55 µM
  TGI: 8.41 µM
[43]
  GI50: 1.68 µM
  TGI: 5.35 µM
[44]
  GI50: 0.864 µM
  TGI: 3.02 µM
[45]
  GI50: 15.9 µM
  TGI: > 100 µM
[46]
  GI50: 0.663 µM
  TGI: 5.85 µM
[47]
  GI50: 2.56 µM
  TGI: 95.6 µM
[48]
  GI50: 3.28 µM
  TGI: 20.8 µM
[49]
  GI50: 2.32 µM
  TGI: 32.8 µM
[50]
  GI50: 2.26 µM
  TGI: 15.8 µM
[51]
  GI50: 0.113 µM
  TGI: 0.256 µM
[52]
  GI50: 0.452 µM
  TGI: > 100 µM
[53]
  GI50: 9.17 µM
  TGI: 52 µM
[54]
  GI50: 1.36 µM
  TGI: > 100 µM
[55]
  GI50: 1.13 µM
  TGI: 12.5 µM
[56]
  GI50: 6.69 µM
  TGI: 21.6 µM
[57]
  GI50: 0.38 µM
  TGI: 4.27 µM
[58]
  GI50: 8.45 µM
  TGI: > 100 µM
